Test results taken from paper PMC3772825, “Development of Novel ^123I-Labeled Pyridyl Benzofuran Derivatives for SPECT Imaging of β-Amyloid Plaques in Alzheimer’s Disease” (PLoS ONE, 2013).
Where two headings read alike, the source gives them in different places.

How the values were obtained:
[1] = Biodistribution in normal mice; format: in vivo, ddY mice; conditions: for time of peak brain uptake: postinjection
Procedure: While under anesthesia with 2% isoflurane, ddY mice were injected directly into a tail vein with 100 µL of 10% EtOH containing ^125I-labeled pyridyl benzofuran derivatives (37 kBq). The mice (male, n = 5 for each time point) were sacrificed at 2, 10, 30, and 60 min postinjection. The organs of interest were removed and weighed, and radioactivity was measured with an automatic gamma counter (COBRAII; Packard). Percentage dose per organ was calculated by comparing the tissue counts to suitably diluted aliquots of the injected material. The %dose/g of samples was calculated by comparing the sample counts with the count of the diluted initial dose.

Aβ(1–42) aggregates = target: T1, Aβ(1–42) aggregates (Homo sapiens, UniProt P05067); assay: In vitro binding assay with Aβ(1–42) aggregates, competition with [125I]IMPY; conditions: mean ± SEM of three independent determinations; Cheng-Prusoff
T1 construct: Aβ(1–42) was purchased from the Peptide Institute (Osaka, Japan); purchased Peptide Institute (Osaka, Japan)
Procedure: Aggregation was carried out by gently dissolving the peptide (0.25 mg/mL) in a buffer solution (pH 7.4) containing 10 mM sodium phosphate and 1 mM EDTA. […] The mixture was then filtered through Whatman GF/B filters using a Brandel M-24 cell harvester, and the radioactivity of the filters containing the bound ^125I ligand was measured in a γ counter. Values for the half-maximal inhibitory concentration (IC50) were determined from displacement curves of three independent experiments using GraphPad Prism 5.0, and those for the inhibition constant (Ki) were calculated using the Cheng-Prusoff equation [26]: […]

Aβ plaques [2] = assay: In vitro autoradiography using human AD brain sections; format: binding; conditions: postmortem human AD brain sections, 1 h at room temperature
Procedure: Postmortem brain tissues from an anonymous autopsy-confirmed case of AD (person) were obtained from the Graduate School of Medicine, Kyoto University. Six-micrometer-thick serial sections of paraffin-embedded blocks were used for in vitro autoradiography. The sections were incubated with ^125I-labeled tracers (444 kBq/50 µL) for 1 h at room temperature, then dipped in saturated Li2CO3 in 40% EtOH (two 2-min washes), washed with 40% EtOH (one 2-min wash), and rinsed with water for 30 s. After drying, the ^125I-labeled sections were exposed to a BAS imaging plate (Fuji Film) overnight. Autoradiographic images were obtained using a BAS5000 scanner system (Fuji Film). After autoradiographic examination, the same sections were immunostained using an amyloid β-protein immunohistochemical staining kit (Wako Pure Chemical Industries, Ltd.).

[3] = In vivo stability in normal mice (intact form in plasma by RP-HPLC); parameters: species or system ddY mice; conditions: 30 min postinjection, i.v.
Procedure: [^125I]8 (0.11 MBq, 100 µL) was injected into the tail vein of ddY mice. The mice were sacrificed at 2, 10, and 30 min after the injection (male, n = 3 for each time point). The blood samples were centrifuged at 3,500 rpm for 10 min to separate plasma. Plasma samples were mixed with equal volumes of acetonitrile followed by centrifugation at 4,500 rpm for 10 min to remove the denatured proteins. The supernatant was filtrated using 0.45 µm filter (Millipore; Billerica, MA, USA). Then, the filtrate was analyzed by RP-HPLC.

[4] = In vitro stability in mouse plasma; format: in vitro ADME; conditions: incubation 1 h at 37°C, RP-HPLC
Procedure: [^125I]8 (11 kBq, […]) was added to the mouse plasma ([…]), and the plasma samples were incubated at 37°C for 1 h. After incubation, plasma samples were mixed with equal volumes of acetonitrile followed by centrifugation at 4,500 rpm for 10 min to remove the denatured proteins. The supernatant was filtrated using a 0.45 µm filter (Millipore; Billerica, MA, USA). Then, the filtrate was analyzed by RP-HPLC.

Aβ plaques [5] = target: T2, Aβ plaques (Homo sapiens, UniProt P05067); assay: Ex vivo autoradiography of transgenic mouse brain; conditions: brains of Tg2576 mice after SPECT/CT; not in the wild-type control
Excerpt: The animals were killed by decapitation after the SPECT analysis. Brains were immediately removed and frozen in a dry ice/hexane bath. Sections of 20 µm were cut and exposed to a BAS imaging plate (Fuji Film, Tokyo, Japan) overnight. Ex vivo film autoradiograms were thus obtained. After autoradiographic examination, the same sections were stained by thioflavin-S to confirm the presence of Aβ plaques. For staining with thioflavin-S, sections were immersed in a 0.125% thioflavin-S solution containing 50% EtOH for 5 min and washed in 50% EtOH. After drying, the sections were examined using a microscope (Eclipse 80i; Nikon) equipped with a B-2A filter set (excitation, 450–490 nm; diachronic mirror, 505 nm; long-pass filter, 520 nm).

Aβ plaques [6] = target: T2, Aβ plaques; assay: Small-animal SPECT/CT in Tg2576 and wild-type mice; format: in vivo, Tg2576 transgenic mice; conditions: average ± SD
Procedure: Dynamic SPECT scans were performed on a dedicated small-animal SPECT scanner (FX3300, Gamma Medica-Ideas). Tg2576 transgenic mice (28 months, female, n = 3) and wild-type mice (28 months, female, n = 3) were used as an Alzheimer’s model and an age-matched control, respectively. Briefly, the animals were initially anesthetized with 2% isoflurane. When fully anesthetized, an animal was placed on the scanner bed, with a nose cone used to maintain anesthesia with 2% isoflurane throughout the experiment. [^123I]8 (20.5–26.5 MBq) in 10% aqueous EtOH solution containing 0.1% Tween80 was injected into a tail vein. Dynamic data were acquired over a period of 60 min after the injection, followed by the acquisition of CT data over a period of 5 min. The SPECT data were reconstructed using a 3-dimensional ordered subsets expectation maximization (3D OSEM) algorithm (5 iteration, 8 subsets). The SPECT scan time was sorted by a 30-s time frame in each 1-min interval (total, 60 frames for a total scan time of 60 min). […] For statistical analyses, regions of interest (ROIs) were manually placed over the frontal cortex (FR) and cerebellum (CE) on the summed SPECT images of [^123I]8 in Tg2576 (n = 3) and wild-type (n = 3) mice. Identification of anatomical structures was guided by the stereotaxic mouse brain atlas. […]

[7] = parameters: method as in PMID 17210465; conditions: ref [31]; cited from earlier work

T1 sequence (P05067 672-713 limits assumed): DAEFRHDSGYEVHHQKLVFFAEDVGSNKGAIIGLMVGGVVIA
T2 sequence (P05067 672-711 limits assumed): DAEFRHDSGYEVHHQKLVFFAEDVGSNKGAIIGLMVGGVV

SMILES: Nc1ccc(-c2cc3cc(I)ccc3o2)cn1 [Compound 7, 5-(5-Iodobenzofuran-2-yl)pyridin-2-amine]
- time of peak brain uptake ([1]; i.v.): 10 min
- brain2min/brain60 min ratio ([1]; washout from the brain): 1.30
- Ki (Aβ(1–42) aggregates): 10.3 ± 1.48 nM
- in vitro autoradiography of AD brain sections (Aβ plaques [2]): nonspecific binding in white matter

SMILES: CNc1ccc(-c2cc3cc(I)ccc3o2)cn1 [Compound 8, 5-(5-Iodobenzofuran-2-yl)-N-methylpyridin-2-amine]
- brain radioactivity at 60 min postinjection ([1]; i.v., 60 min): 1.30 %ID/g
- time of peak brain uptake ([1]; i.v.): 2 min
- percent of the intact form in plasma after injection [3]: 20.7%
- radioactivity existing as intact form in mouse plasma [4]: 77.4%
- Ki (Aβ(1–42) aggregates): 2.94 ± 0.22 nM
- ex vivo autoradiography, labeling of Aβ plaques (Aβ plaques [5]): extensive labeling of Aβ plaques
- mean FR/CE ratio (frontal cortex to cerebellum), SPECT (Aβ plaques [6]; Tg2576 mice (n = 3)): 1.34±0.07
- mean FR/CE ratio (frontal cortex to cerebellum), SPECT (Aβ plaques [6]; wild-type mice (n = 3)): 1.01±0.03

SMILES: CN(C)c1ccc(-c2cc3cc(I)ccc3o2)cn1 [Compound 9, 5-(5-Iodobenzofuran-2-yl)-N,N-dimethylpyridin-2-amine]
- time of peak brain uptake ([1]; i.v.): 10 min
- Ki (Aβ(1–42) aggregates): 2.36 ± 0.53 nM

SMILES: CNc1ccc(/C=C/c2ccc(OCCOCCOCC[18F])nc2)cc1 [[^18F]AV-45, (E)-4-(2-(6-(2-(2-(2-[^18F]fluoroethoxy)ethoxy)ethoxy)pyridin-3-yl)vinyl)-N-methylaniline]
- brain2min/brain60 min ratio [7]: 3.8
